Source: patent publication US6875872B1, “Compounds” (AstraZeneca, priority 1993, dated 2005)

What was measured:
[1] = Racemization experiment in aqueous phosphate buffer pH 11 warmed at 37° C.; assay type: physicochemical; settings: aqueous phosphate buffer solution pH=11, c=10^-5 M, 26 hours at 37° C.
[2] = Stability towards racemization at different pH values (aqueous buffer solutions, refrigerator, optical purity by chiral column chromatography); assay type: physicochemical; settings: for racemization (stereochemical stability): after 16 days
Description: Stability Towards Racemization at Different pH Values
The stability of the optically pure compounds of the invention against racemization has been measured at low concentrations in a refrigerator in aqueous buffer solutions at pH 8, 9.3, 10 and 11.2. The stereochemical stability was measured by comparing the optical purity for the (−)-isomer of 5-methoxy-2-[[(4-methoxy-3,5-dimethyl-2-pyridinyl)-methyl]sulfinyl]-1H-benzimidazole in buffer solution immediately after dissolving and after several days. The measurement was performed by chromatography on an analytical chiral column.

racemization (stereochemical stability, optical purity immediately after dissolving vs after several days) ([2]; aqueous buffer solution pH 11.2, refrigerator, low concentration, after 21 days) | chemical degradation of the compound ([2]; aqueous buffer solutions pH 8, 9.3 and 10, refrigerator (compared with pH 11.2)) | SMILES | racemization [1] | racemization (stereochemical stability) ([2]; aqueous buffer solution pH 8, refrigerator) | racemization (stereochemical stability) ([2]; aqueous buffer solution pH 9.3, refrigerator) | racemization (stereochemical stability) ([2]; aqueous buffer solution pH 10, refrigerator)
– | – | COc1ccc2[nH]c([S+]([O-])Cc3ncc(C)c(OC)c3C)nc2c1.[Na+] (single isomer, unassigned; (+)) [(+)-5-methoxy-2-[[(4-methoxy-3,5-dimethyl-2-pyridinyl)methyl]sulfinyl]-1H-benzimidazole sodium salt] | without any racemization at all being observed | – | – | –
no racemization | more apparent | COc1ccc2[nH]c([S+]([O-])Cc3ncc(C)c(OC)c3C)nc2c1 (single isomer, unassigned; (-)) [(−)-5-methoxy-2-[[(4-methoxy-3,5-dimethyl-2-pyridinyl)methyl]-sulfinyl]-1H-benzimidazole] | – | at none of these pH values a detectable racemization was obtained | at none of these pH values a detectable racemization was obtained | at none of these pH values a detectable racemization was obtained
